According to patent US7671054B1, “Reverse-turn mimetics and method relating thereto” (Choongwae Pharma Corporation, priority 2001, dated 2010):

system: TCF4/β-catenin transcription (TOPFlash) in SW480 cells; assay: Reporter gene assay (TOPFlash luciferase); assay type: cell-based; details: Homo sapiens, SW480, Table 4; Reporter gene assay as described in Example 6; read-out: IC50
Method: SW480 cells were transfected with the usage of Superfect™ transfect reagent (Qiagen, 301307). Cells were trypsinized briefly 1 day before transfection and plated on 6 well plate (5×10^5 cells/well) so that they were 50-80% confluent on the day of transfection.
Four microgram (TOPFlash) and one microgram (pRL-null) of DNAs were diluted in 150 μl of serum-free medium, and 30 μl of Superfect™ transfect reagent was added. The DNA-Superfect mixture was incubated at room temperature for 15 min, and then, 1 ml of 10% FBS DMEM was added to this complex for an additional 3 hours of incubation. While complexes were forming, cells were washed with PBS twice without antibiotics.
The DNA-Superfect™ transfect reagent complexes were applied to the cells before incubating at 37° C. at 5% CO2 for 3 hours. After incubation, recovery medium with 10% FBS was added to bring the final volume to 1.18 ml. After 3 hours incubation, the cells were harvested and reseeded to 96 well plate (3×10^4 cells/well). After overnight incubation at 37° C. at 5% CO2, the cells were treated with Compound A for 24 hours. Finally, the activity was checked by means of luciferase assay (Promega, E1960).

Compared with `C=CCN1CC(=O)N2C(CN(Cc3cccc(N(C)C)c3)C(=O)[C@@H]2Cc2ccc(O)cc2)N1C(=O)NCc1ccccc1` (single isomer, unassigned) [Compound 192], `CN(C)c1cccc(CN2C[C@H]3N(C(=O)CN(C)N3C(=O)NCc3ccccc3)[C@@H](Cc3ccc(O)cc3)C2=O)c1` [Compound 38] is 5.5-fold higher in IC50: 1.3 ± 0.3 µM for the first, 7.1 µM for the second.

`Cc1ccc(CC2C(=O)N(CCc3ccccc3)CC3N2C(=O)CN(C)N3C(=O)Nc2ccc(C(F)(F)F)cc2)cc1` (centres unmarked) [Compound 2] and `CN1CC(=O)N2[C@@H](Cc3ccc(O)cc3)C(=O)N(Cc3cccc4ccccc34)C[C@@H]2N1C(=O)Nc1ccc(C(F)(F)F)cc1` [Compound 4] are within 1.5-fold of each other in IC50: 12.6 µM for the first, 11.8 µM for the second.

Compared with `CN1CC(=O)N2C(Cc3ccc(O)cc3)C(=O)N(Cc3cccc4ccccc34)CC2N1C(=O)NCc1ccc(Cl)c(Cl)c1` (centres unmarked) [Compound 3], `CN1CC(=O)N2[C@@H](Cc3ccc(O)cc3)C(=O)N(Cc3ccc(Cl)c(Cl)c3)C[C@@H]2N1C(=O)NCc1ccccc1` [Compound 29] is 3.7-fold lower in IC50: 13.9 µM for the first, 3.8 µM for the second.

`CN1CC(=O)N2C(CN(Cc3ccccc3F)C(=O)[C@@H]2Cc2ccc(O)cc2)N1C(=O)NCc1ccccc1` (some centres unmarked) [Compound 8] and `CN1CC(=O)N2C(CN(Cc3ccccc3Cl)C(=O)[C@@H]2Cc2ccc(O)cc2)N1C(=O)NCc1ccccc1` (some centres unmarked) [Compound 17] are within 1.5-fold of each other in IC50: 14.5 µM for the first, 14.3 µM for the second.

First: CN1CC(=O)N2C(CN(Cc3cccc(F)c3)C(=O)[C@@H]2Cc2ccc(O)cc2)N1C(=O)NCc1ccccc1 (some centres unmarked) [Compound 9]
Second: CN1CC(=O)N2C(CN(Cc3cccc(Cl)c3)C(=O)[C@@H]2Cc2ccc(O)cc2)N1C(=O)NCc1ccccc1 (some centres unmarked) [Compound 18]
The IC50 of the first is 2-fold higher: 6.7 µM for the first, 3.3 µM for the second. The second is the more potent here.

Compared with `CN1CC(=O)N2C(CN(Cc3ccc(F)cc3)C(=O)[C@@H]2Cc2ccc(O)cc2)N1C(=O)NCc1ccccc1` (some centres unmarked) [Compound 10], `CN1CC(=O)N2[C@@H](Cc3ccc(O)cc3)C(=O)N(Cc3ccc(Cl)cc3)C[C@@H]2N1C(=O)NCc1ccccc1` [Compound 28] is 1.9-fold higher in IC50: 4 µM for the first, 7.5 µM for the second.

Compared with `CN1CC(=O)N2C(CN(Cc3ccc(F)cc3F)C(=O)[C@@H]2Cc2ccc(O)cc2)N1C(=O)NCc1ccccc1` (some centres unmarked) [Compound 13], `CN1CC(=O)N2C(CN(Cc3cc(F)ccc3F)C(=O)[C@@H]2Cc2ccc(O)cc2)N1C(=O)NCc1ccccc1` (some centres unmarked) [Compound 14] is 2.8-fold higher in IC50: 6.4 µM for the first, 17.7 µM for the second. The first is the more potent here.

`CN1CC(=O)N2C(CN(Cc3cccc(C(F)(F)F)c3)C(=O)[C@@H]2Cc2ccc(O)cc2)N1C(=O)NCc1ccccc1` (some centres unmarked) [Compound 15] and `CN1CC(=O)N2[C@@H](Cc3ccc(O)cc3)C(=O)N(Cc3ccccc3C(F)(F)F)C[C@@H]2N1C(=O)NCc1ccccc1` [Compound 32] are within 1.5-fold of each other in IC50: 4.2 µM for the first, 4.1 µM for the second.

Going from `CN1CC(=O)N2C(CN(Cc3ccc(Cl)cc3Cl)C(=O)[C@@H]2Cc2ccc(O)cc2)N1C(=O)NCc1ccccc1` (some centres unmarked) [Compound 19] to `CN(C)c1cc(Cl)ccc1CN1C[C@H]2N(C(=O)CN(C)N2C(=O)NCc2ccccc2)[C@@H](Cc2ccc(O)cc2)C1=O` [Compound 45], the IC50 falls from 11.5 µM to 2.2 µM (5.2-fold).

Compared with `C[C@H](c1ccccc1)N1CC2N(C(=O)CN(C)N2C(=O)NCc2ccccc2)[C@@H](Cc2ccc(O)cc2)C1=O` (some centres unmarked) [Compound 20], `CC(c1ccc(F)cc1)N1C[C@H]2N(C(=O)CN(C)N2C(=O)NCc2ccccc2)[C@@H](Cc2ccc(O)cc2)C1=O` (some centres unmarked) [Compound 37] is 2.2-fold lower in IC50: 5.1 µM for the first, 2.3 µM for the second.

`COc1ccc(CN2CC3N(C(=O)CN(C)N3C(=O)NCc3ccccc3)[C@@H](Cc3ccc(O)cc3)C2=O)cc1` (some centres unmarked) [Compound 22] and `COc1ccccc1CN1C[C@H]2N(C(=O)CN(C)N2C(=O)NCc2ccccc2)[C@@H](Cc2ccc(O)cc2)C1=O` [Compound 26] are within 1.5-fold of each other in IC50: 10.4 µM for the first, 7.1 µM for the second.

`COc1cccc(CN2CC3N(C(=O)CN(C)N3C(=O)NCc3ccccc3)[C@@H](Cc3ccc(O)cc3)C2=O)c1OC` (some centres unmarked) [Compound 23] and `CN1CC(=O)N2[C@@H](Cc3ccc(O)cc3)C(=O)N(Cc3cccc4c3cnn4C)C[C@@H]2N1C(=O)NCc1ccccc1` [Compound 56] are within error of each other in IC50: 10.7 µM for the first, 9.3 ± 1.6 µM for the second.

First: CN1CC(=O)N2[C@@H](Cc3ccc(O)cc3)C(=O)N(Cc3ccc4ccccc4c3)C[C@@H]2N1C(=O)NCc1ccccc1 [Compound 24]
Second: CN1CC(=O)N2[C@@H](Cc3ccc(O)cc3)C(=O)N(Cc3ccc4ccccc4n3)C[C@@H]2N1C(=O)NCc1ccccc1 [Compound 39]
The IC50 of the first is 1.9-fold lower: 5 µM for the first, 9.7 µM for the second. The first is the more potent here.

Compared with `CN1CC(=O)N2[C@@H](Cc3ccc(O)cc3)C(=O)N(Cc3ccc(F)c4ccccc34)C[C@@H]2N1C(=O)NCc1ccccc1` [Compound 25], `CN1CC(=O)N2[C@@H](Cc3ccc(O)cc3)C(=O)N(Cc3cccc4ncccc34)C[C@@H]2N1C(=O)NCc1ccccc1` [Compound 33] is 4.3-fold higher in IC50: 3 µM for the first, 13 µM for the second.

Going from `CN1CC(=O)N2[C@@H](Cc3ccc(O)cc3)C(=O)N(Cc3ccccc3OC(F)(F)F)C[C@@H]2N1C(=O)NCc1ccccc1` [Compound 30] to `CN1CC(=O)N2[C@@H](Cc3ccc(O)cc3)C(=O)N(Cc3ccccc3SC(F)(F)F)C[C@@H]2N1C(=O)NCc1ccccc1` [Compound 31], the IC50 rises from 7.5 µM to 11.9 µM (1.6-fold). The first is the more potent here.

Going from `CN1CC(=O)N2[C@@H](Cc3ccc(O)cc3)C(=O)N(Cc3cccc4nccnc34)C[C@@H]2N1C(=O)NCc1ccccc1` [Compound 34] to `CN1CC(=O)N2[C@@H](Cc3ccc(O)cc3)C(=O)N(Cc3cccc4occc34)C[C@@H]2N1C(=O)NCc1ccccc1` [Compound 40], the IC50 rises from 4.4 µM to 7 µM (1.6-fold). The first is the more potent here.

`CN1CC(=O)N2[C@@H](Cc3ccc(O)cc3)C(=O)N(Cc3cccc4ccccc34)C[C@@H]2N1C(=S)NCc1ccccc1` [Compound 35] and `CN1CC(=O)N2[C@@H](CN(Cc3cccc4ccccc34)C(=O)[C@H]2c2ccc(O)cc2)N1C(=O)NCc1ccccc1` [Compound 36] are within 1.5-fold of each other in IC50: 11.4 µM for the first, 12.5 µM for the second.

First: Cc1ccc([C@@H](C)N2C[C@H]3N(C(=O)CN(C)N3C(=O)NCc3ccccc3)[C@@H](Cc3ccc(O)cc3)C2=O)cc1 [Compound 41]
Second: C[C@H](c1cccc(N(C)C)c1)N1C[C@H]2N(C(=O)CN(C)N2C(=O)NCc2ccccc2)[C@@H](Cc2ccc(O)cc2)C1=O [Compound 61]
The IC50 of the first is 1.9-fold lower: 13.6 µM for the first, 25.8 µM for the second. The first is the more potent here.

First: CN(C)c1cccc(F)c1CN1C[C@H]2N(C(=O)CN(C)N2C(=O)NCc2ccccc2)[C@@H](Cc2ccc(O)cc2)C1=O [Compound 42]
Second: CN(C)c1cc(F)ccc1CN1C[C@H]2N(C(=O)CN(C)N2C(=O)NCc2ccccc2)[C@@H](Cc2ccc(O)cc2)C1=O [Compound 50]
The IC50 of the first is 14-fold higher: 18.2 µM for the first, 1.3 µM for the second.

First: CN(C)c1ccccc1CN1C[C@H]2N(C(=O)CN(C)N2C(=O)NCc2ccccc2)[C@@H](Cc2ccc(O)cc2)C1=O [Compound 43]
Second: Cc1cccc(CN2C[C@H]3N(C(=O)CN(C)N3C(=O)NCc3ccccc3)[C@@H](Cc3ccc(O)cc3)C2=O)c1N(C)C [Compound 48]
The IC50 of the first is 2.1-fold lower: 5.2 µM for the first, 10.9 µM for the second.

`CN1CC(=O)N2[C@@H](Cc3ccc(O)cc3)C(=O)N(Cc3ccc(F)cc3C(F)(F)F)C[C@@H]2N1C(=O)NCc1ccccc1` [Compound 44] and `CN(C)c1cc(F)c(F)cc1CN1C[C@H]2N(C(=O)CN(C)N2C(=O)NCc2ccccc2)[C@@H](Cc2ccc(O)cc2)C1=O` [Compound 49] are within 1.5-fold of each other in IC50: 1.3 µM for the first, 1.4 µM for the second.

First: CCN(C)c1cccc(CN2C[C@H]3N(C(=O)CN(C)N3C(=O)NCc3ccccc3)[C@@H](Cc3ccc(O)cc3)C2=O)c1 [Compound 46]
Second: CCCN(C)c1cccc(CN2C[C@H]3N(C(=O)CN(C)N3C(=O)NCc3ccccc3)[C@@H](Cc3ccc(O)cc3)C2=O)c1 [Compound 55]
The IC50 of the first is 1.6-fold lower: 4.4 µM for the first, 7.2 ± 1.4 µM for the second.

First: CCN(CC)c1cccc(CN2C[C@H]3N(C(=O)CN(C)N3C(=O)NCc3ccccc3)[C@@H](Cc3ccc(O)cc3)C2=O)c1 [Compound 47]
Second: CN(c1cccc(CN2C[C@H]3N(C(=O)CN(C)N3C(=O)NCc3ccccc3)[C@@H](Cc3ccc(O)cc3)C2=O)c1)C1CC1 [Compound 57]
The IC50 of the first is 2.7-fold lower: 3.5 µM for the first, 9.4 ± 1.5 µM for the second.

First: Cc1cc(C)c(N(C)C)c(CN2C[C@H]3N(C(=O)CN(C)N3C(=O)NCc3ccccc3)[C@@H](Cc3ccc(O)cc3)C2=O)c1 [Compound 51]
Second: CC(C)N(C)c1cc(CN2C[C@H]3N(C(=O)CN(C)N3C(=O)NCc3ccccc3)[C@@H](Cc3ccc(O)cc3)C2=O)ccc1Cl [Compound 54]
The IC50 of the first is 4.9-fold lower: 4.8 µM for the first, 23.6 ± 5.6 µM for the second. The first is the more potent here.

Going from `CN1CC(=O)N2[C@@H](Cc3ccc(OCC(=O)O)cc3)C(=O)N(Cc3cccc4ccccc34)C[C@@H]2N1C(=O)NCc1ccccc1` [Compound 52] to `CN1CC(=O)N2[C@@H](Cc3ccc(O)cc3)C(=O)N(Cc3cccc(N4CCCC4)c3)C[C@@H]2N1C(=O)NCc1ccccc1` [Compound 63], the IC50 falls from 25 µM to 4.1 ± 0.5 µM (6.1-fold). The second is the more potent here.

Compared with `CN(C1CC1)C1CC=CC=C1CN1C[C@H]2N(C(=O)CN(C)N2C(=O)NCc2ccccc2)[C@@H](Cc2ccc(O)cc2)C1=O` (some centres unmarked) [Compound 53], `C[C@H](c1ccc(F)c(N(C)C)c1)N1C[C@H]2N(C(=O)CN(C)N2C(=O)NCc2ccccc2)[C@@H](Cc2ccc(O)cc2)C1=O` [Compound 59] is 1.7-fold lower in IC50: 9 ± 1.5 µM for the first, 5.3 ± 1.3 µM for the second.

`CC(c1cc(N(C)C)cc(C(F)(F)F)c1)N1C[C@H]2N(C(=O)CN(C)N2C(=O)NCc2ccccc2)[C@@H](Cc2ccc(O)cc2)C1=O` (some centres unmarked) [Compound 60] and `CC(C)N(C)c1cc([C@@H](C)N2C[C@H]3N(C(=O)CN(C)N3C(=O)NCc3ccccc3)[C@@H](Cc3ccc(O)cc3)C2=O)ccc1F` [Compound 62] are within error of each other in IC50: 6.9 ± 1.7 µM for the first, 9.7 ± 1.7 µM for the second.

`CCN(CC)c1cc(F)ccc1[C@H](C)N1C[C@H]2N(C(=O)CN(C)N2C(=O)NCc2ccccc2)[C@@H](Cc2ccc(O)cc2)C1=O` [Compound 64] and `CC(C)N(C)c1ccc(F)c([C@H](C)N2C[C@H]3N(C(=O)CN(C)N3C(=O)NCc3ccccc3)[C@@H](Cc3ccc(O)cc3)C2=O)c1` [Compound 65] are within error of each other in IC50: 25.3 ± 6.6 µM for the first, 19 ± 7.1 µM for the second.
